We go through four molecules from patent US20250296960A1, “PEPTIDE COMPOSITIONS AND METHODS OF USE THEREOF” (priority 2022, published 2025).

Assay [1] is described as follows: Body weight loss in normal C57BL/6 mice, subcutaneous dosing. The conditions noted are these: for Weight loss (%): normal mice. The class given is in vivo.
Assay [2] is described as follows: In vivo efficacy in mAMLN (NASH) mice, 2 weeks. The conditions noted are these: for blood glucose, in words / body weight, in words: 20 nmol/kg s.c. Q2D, 2 weeks; for hepatic triglyceride content, in words / liver weight, in words / mRNA levels of TGF-β1 (inflammation marker) and ACTA2 (fibrosis marker), in words: end of treatment.
For another assay, the target named is T1, human GLP-1R (Homo sapiens, UniProt P43220).
T1 construct: host or cells: CHO-K1
Description: cAMP assay (HitHunter cAMP) in GLP-1R-expressing CHO-K1 cells (GLP-1R+ cells). In kind it is cell-based. The method in brief: (§1)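 Luminescent cAMP read-out: after 30 min peptide stimulation at 37 °C in cAMP assay buffer, receptor-expressing CHO-K1 cells (seeded 7×10^3/well the night before) received antibody and detection reagents for 1 h, then Solution A for 3 h, at room temperature in the dark.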

For the next assay, the target named is T2, human GCGR (Homo sapiens, UniProt P47871).
T2 construct: host or cells: CHO-K1
The experiment in a line: cAMP assay (HitHunter cAMP) in GCGR-expressing CHO-K1 cells (GCGR+ cells). In kind it is cell-based. The method in brief: as §1

For the next assay, the target named is T3, human GIPR (Homo sapiens, UniProt P48546).
T3 construct: host or cells: CHO-K1
T3 sequence (P48546 22-466): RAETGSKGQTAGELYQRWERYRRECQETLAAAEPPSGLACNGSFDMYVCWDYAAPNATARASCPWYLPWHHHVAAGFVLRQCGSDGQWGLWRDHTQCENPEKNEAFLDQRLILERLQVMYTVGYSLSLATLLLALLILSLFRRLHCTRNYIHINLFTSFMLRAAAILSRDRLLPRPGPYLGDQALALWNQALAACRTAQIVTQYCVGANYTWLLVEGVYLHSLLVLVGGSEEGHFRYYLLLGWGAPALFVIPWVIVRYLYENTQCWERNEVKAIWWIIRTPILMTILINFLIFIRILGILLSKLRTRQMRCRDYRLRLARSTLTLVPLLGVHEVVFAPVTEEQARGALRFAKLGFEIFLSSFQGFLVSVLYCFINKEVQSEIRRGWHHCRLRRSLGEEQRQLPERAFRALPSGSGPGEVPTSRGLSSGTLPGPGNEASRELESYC
Description: cAMP assay (HitHunter cAMP) in GIPR-expressing CHO-K1 cells (GIPR+ cells). In kind it is cell-based. The method in brief: as §1
(Cyclic AMP is a second messenger, typically raised through Gs and lowered through Gi signalling.)

For assay [3], the target named is human GLP-1 receptor (GLP-1R), expressed on CHO-K1 cells (human, UniProt P43220 24-463). Description: cell-based or functional assay.
The target of assay [4] is human glucagon receptor (GCGR), expressed on CHO-K1 cells (human, UniProt P47871 26-477). The experiment in a line: cell-based or functional assay.
Assay [5] addresses T4, human glucose-dependent insulinotropic polypeptide receptor (GIPR), expressed on CHO-K1 cells (human, UniProt P48546 22-466).
T4 sequence (looked up): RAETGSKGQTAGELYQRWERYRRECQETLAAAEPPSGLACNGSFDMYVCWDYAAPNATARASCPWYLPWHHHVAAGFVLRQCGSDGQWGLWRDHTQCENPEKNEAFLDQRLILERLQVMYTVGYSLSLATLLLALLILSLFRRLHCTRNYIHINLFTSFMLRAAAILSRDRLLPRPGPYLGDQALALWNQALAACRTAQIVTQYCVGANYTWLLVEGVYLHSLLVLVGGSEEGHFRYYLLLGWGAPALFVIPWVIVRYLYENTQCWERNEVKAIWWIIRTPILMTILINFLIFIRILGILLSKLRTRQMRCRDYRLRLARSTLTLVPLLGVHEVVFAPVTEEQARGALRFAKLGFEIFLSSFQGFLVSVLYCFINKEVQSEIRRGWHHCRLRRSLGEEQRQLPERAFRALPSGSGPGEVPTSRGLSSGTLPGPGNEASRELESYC
Description: cell-based or functional assay.

Where [6] appears, read: 20 nmol/kg QD, Weight loss at 48 hr.
The mark [7] stands for this setting: Table 19, normalised to activity at GLP-1R.
The mark [8] stands for this setting: Table 24, ratio of EC50 of native ligand over peptide.

Numbered stars: 1 amine (or outer) side, 2 acyl side, 3 side chain; on linkers, the order of the positions; unused ones are H or OH. Square brackets hold non-standard residues; d marks the D form. Side chains are listed from the residue outwards. Ends that are not written are not given here. Peptide text beside a SMILES is read from it. * marks the point of attachment. C18 = C18 fatty acid (C16-C22 fatty acids conjugated via γGlu/8-amino-3,6-dioxaoctanoic acid spacers); X1 = O=C(O)CCCCCCCCCCCCCCCCC(=O)N[C@@H](CCC(=O)NCCOCCOCC(=O)NCCOCCOCC(=O)NCCN1C(=O)CC(*)C1=O)C(=O)O; γGlu = O=C(O)[C@H](CCC(=O)[*:2])N[*:1]; AEEA = NCCOCCOCC(=O)O; Aib = CC(C)(N)C(=O)O

T2 sequence (P47871 26-477): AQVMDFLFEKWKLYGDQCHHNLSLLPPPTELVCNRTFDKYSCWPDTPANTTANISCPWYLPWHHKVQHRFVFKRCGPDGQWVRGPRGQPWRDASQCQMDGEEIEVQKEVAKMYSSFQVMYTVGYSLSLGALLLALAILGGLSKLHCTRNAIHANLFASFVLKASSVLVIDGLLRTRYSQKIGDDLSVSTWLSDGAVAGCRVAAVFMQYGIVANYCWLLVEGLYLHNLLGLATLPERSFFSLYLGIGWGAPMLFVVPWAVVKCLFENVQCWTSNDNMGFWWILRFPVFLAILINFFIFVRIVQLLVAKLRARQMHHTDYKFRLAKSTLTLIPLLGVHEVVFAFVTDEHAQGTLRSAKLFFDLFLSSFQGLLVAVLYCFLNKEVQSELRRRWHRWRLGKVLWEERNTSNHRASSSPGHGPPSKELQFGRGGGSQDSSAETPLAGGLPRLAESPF
T1 sequence (P43220 24-463): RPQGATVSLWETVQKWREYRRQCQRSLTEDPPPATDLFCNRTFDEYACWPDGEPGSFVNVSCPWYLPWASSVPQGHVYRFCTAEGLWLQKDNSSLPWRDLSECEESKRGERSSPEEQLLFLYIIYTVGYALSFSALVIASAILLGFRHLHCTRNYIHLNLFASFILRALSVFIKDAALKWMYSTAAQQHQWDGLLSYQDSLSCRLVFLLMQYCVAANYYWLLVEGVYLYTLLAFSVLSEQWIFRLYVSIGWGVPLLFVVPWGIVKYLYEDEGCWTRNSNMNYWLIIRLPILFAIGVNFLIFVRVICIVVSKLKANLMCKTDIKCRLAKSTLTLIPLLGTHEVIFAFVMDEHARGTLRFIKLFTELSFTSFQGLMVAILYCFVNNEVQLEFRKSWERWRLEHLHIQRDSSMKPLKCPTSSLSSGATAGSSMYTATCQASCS
Sequence of human glucagon receptor (GCGR), expressed on CHO-K1 cells (P47871 26-477): as the sequence (P47871 26-477) above

With “HAibQGT FTSDY SK*YLD YMMARDFVQWLIEGGPSSGAPPPS (H[Aib]QGTFTSDYSK([AEEA-AEEA-γGlu-C18])YLDYMMARDFVQWLIEGGPSSGAPPPS-NH2) [5D, K* = lysine lipidated with 2OEG-γGlu-C18]”, in assay [1] (setting [6]), the “Weight loss (%)” value is recorded as 19.4 ± 2.2%. For the same molecule, in assay [2], the “blood glucose, in words” value is recorded as “reduce blood glucose”; the “body weight, in words” value is “reduce body weight”; the “hepatic triglyceride content, in words” value is reported as “reduce hepatic triglyceride content”; the “liver weight, in words” value is “reduce liver weight”. For the same molecule, in assay [2], the “mRNA levels of TGF-β1 (inflammation marker) and ACTA2 (fibrosis marker), in words” value (“mRNA levels of TGF-β1” below) is “reduce both TGF-β1 and ACTA2”.
As for “YAibQGT FTSDY SK*LLD YMMQRDFVQWLLEGGPSSGAPPPS (Y[Aib]QGTFTSDYSK([AEEA-AEEA-γGlu-C18])LLDYMMQRDFVQWLLEGGPSSGAPPPS-NH2) [5-3D, K* = lysine lipidated with 2OEG-γGlu-C18]”, in assay [1] (setting [6]), the “Weight loss (%)” value is 7.6 ± 1.3%. Also, in assay [2], the “blood glucose, in words” value was “reduce blood glucose”; the “body weight, in words” value is listed as “reduce body weight”; the “hepatic triglyceride content, in words” value is reported as “reduce hepatic triglyceride content”; the “liver weight, in words” value was “reduce liver weight”. In addition, the “mRNA levels of TGF-β1” value in assay [2] was “reduce both TGF-β1 and ACTA2”.
Consider `CC[C@H](C)[C@H](NC(=O)[C@H](CC(C)C)NC(=O)[C@H](Cc1c[nH]c2ccccc12)NC(=O)[C@H](CCC(N)=O)NC(=O)[C@@H](NC(=O)[C@H](Cc1ccccc1)NC(=O)[C@H](CC(=O)O)NC(=O)[C@H](CCCNC(=N)N)NC(=O)[C@H](C)NC(=O)[C@H](CCSC)NC(=O)[C@H](CCSC)NC(=O)[C@H](Cc1ccc(O)cc1)NC(=O)[C@H](CC(=O)O)NC(=O)[C@H](CC(C)C)NC(=O)[C@H](Cc1ccc(O)cc1)NC(=O)[C@H](CCCCN)NC(=O)[C@H](CO)NC(=O)[C@H](Cc1ccc(O)cc1)NC(=O)[C@H](CC(=O)O)NC(=O)[C@H](CO)NC(=O)[C@@H](NC(=O)[C@H](Cc1ccccc1)NC(=O)[C@@H](NC(=O)CNC(=O)[C@H](CCC(N)=O)NC(=O)C(C)(C)NC(=O)[C@@H](N)Cc1ccc(O)cc1)[C@@H](C)O)[C@@H](C)O)C(C)C)C(=O)N[C@@H](CCC(=O)O)C(=O)NCC(=O)NCC(=O)N1CCC[C@H]1C(=O)N[C@@H](CO)C(=O)N[C@@H](CO)C(=O)NCC(=O)N[C@@H](C)C(=O)N1CCC[C@H]1C(=O)N1CCC[C@H]1C(=O)N1CCC[C@H]1C(=O)N[C@@H](CO)C(=O)N[C@@H](CSC1CC(=O)N(CCNC(=O)COCCOCCNC(=O)COCCOCCNC(=O)CC[C@H](NC(=O)CCCCCCCCCCCCCCCCC(=O)O)C(=O)O)C1=O)C(N)=O` (some centres unmarked) [5-1A] (H-Y[Aib]QGTFTSDYSKYLDYMMARDFVQWLIEGGPSSGAPPPSC(X1)-NH2; N-terminus assumed), for which, at human GLP-1R (Table 18), the “Activity relative to STD peptide (%), GLP-1R” value is on record as 187%. Also, at human GLP-1R (setting [7]), the “Activity relative to GLP-1 (%), GLP-1R” value came to 100%. Further, the “Relative % to native ligand, GLP-1R” value on human GLP-1R (setting [8]) was found to be 187%. Also, on human GLP-1R (Table 25), the “Ratio vs. GLP-1R, GLP-1R” value is listed as 100. The “Relative % to non-lipidated peptide, GLP-1R” value at human GLP-1R (Table 26) is reported as 159%. Besides, the “Activity relative to STD peptide (%), GCGR” value at human GCGR (Table 18) was 24%. Moreover, the “Activity relative to GLP-1 (%), GCGR” value on human GCGR (setting [7]) stood at 13%. Further, the “Relative % to native ligand, GCGR” value at human GCGR (setting [8]) is reported as 24%. Further, on human GCGR (Table 25), the “Ratio vs. GLP-1R, GCGR” value came out at 13. The “Relative % to non-lipidated peptide, GCGR” value on human GCGR (Table 26) is 0%. The “Activity relative to STD peptide (%), GIPR” value at human GIPR (Table 18) stood at 1%. Besides, the “Activity relative to GLP-1 (%), GIPR” value at human GIPR (setting [7]) is on record as 1%. Moreover, the “Relative % to native ligand, GIPR” value at human GIPR (setting [8]) is 1%. For the same molecule, the “Ratio vs. GLP-1R, GIPR” value on human GIPR (Table 25) stood at 1. Further, the “Relative % to non-lipidated peptide, GIPR” value on human GIPR (Table 26) was 11%. The “body weight loss effect, in words” value in assay [1] (Example 5, 20 nmol/kg s.c. QD, 4 days) was “Superior body weight loss effects”. For the same molecule, in assay [1] (10 nmol/kg QD, after 48 or 72 hours), the “Weight loss (%)” value amounted to 20.0 ± 2.1%. Also, the “Weight loss (%)” value in assay [1] (20 nmol/kg QD, after 48 or 72 hours) was found to be 18.9 ± 2.0%. Besides, in assay [2], the “blood glucose, in words” value is “reduce blood glucose”; the “body weight, in words” value is reported as “reduce body weight”; the “hepatic triglyceride content, in words” value is reported as “reduce hepatic triglyceride content”; the “liver weight, in words” value is “reduce liver weight”. Moreover, in assay [2], the “mRNA levels of TGF-β1” value was “reduce both TGF-β1 and ACTA2”.
With Y[Aib]QGTFTSDYSK([AEEA-AEEA-γGlu-C18])LLDYMMQ[Aib]DFVQWLLEGGPSSGAPPPS-NH2 [SEQ ID NO. 84], the “Ratio vs. GLP-1R” value in assay [3] stood at 100; in assay [4], 28; in assay [5] it was 470. For the same molecule, the “Relative % to native ligand” value in assay [3] stood at 71%; in assay [4], 20%; in assay [5], 335%.
